Columns and labels:
[1] = system: wild oat; test: Test B pre/postemergence wild oat; type: in vivo, Avena fatua
How it was run: (§1)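 Response is a visual 0-to-10 score relative to untreated plants, where 0 means no effect and 10 means complete control, taken twelve to sixteen days after application. Treatments went onto soil at planting and onto foliage of 1- to 4-leaf plants, using a surfactant-containing non-phytotoxic solvent.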

[2] = system: blackgrass; test: Test E blackgrass; type: in vivo, Alopecurus myosuroides; conditions: Preemergence
[3] = system: purple nutsedge; test: Test D purple nutsedge; type: in vivo, Cyperus rotundus; conditions: Preemergence, 0 to 100 scale
How it was run: (§2)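 Visual injury ratings, 0 = no injury to 100 = complete control, taken 14 to 21 days after treatment. Test chemicals were in a surfactant-containing non-phytotoxic solvent; preemergence treatments went onto the sandy loam surface of seeded greenhouse pots within one day of sowing.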

[4] = system: cocklebur; test: Test B pre/postemergence cocklebur; type: in vivo, Xanthium strumarium
How it was run: as §1

[5] = system: wheat; test: Test B pre/postemergence wheat; type: in vivo, Triticum aestivum
How it was run: as §1

[6] = system: winter wheat; test: Test E winter wheat; type: in vivo, Triticum aestivum; conditions: Postemergence
How it was run: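 Greenhouse test: for postemergence, foliar application at 1- to 4-leaf stage; compound in non-phytotoxic solvent with surfactant. Rating is visual, relative to untreated controls, about 21 to 28 days after treatment.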

[7] = system: large crabgrass; test: Test D large crabgrass; type: in vivo, Digitaria sanguinalis; conditions: Preemergence, 0 to 100 scale
How it was run: as §2

[8] = system: common ragweed; test: Test D common ragweed; type: in vivo, Ambrosia elatior; conditions: Preemergence, 0 to 100 scale
How it was run: as §2

[9] = system: green foxtail; test: Test E green foxtail; type: in vivo, Setaria viridis; conditions: Preemergence
[10] = system: crabgrass; test: Test B pre/postemergence crabgrass; type: in vivo, Digitaria sanguinalis
How it was run: as §1

[11] = system: winter barley; test: Test E winter barley; type: in vivo, Hordeum vulgare; conditions: Preemergence
[12] = system: winter wheat; test: Test E winter wheat; type: in vivo, Triticum aestivum; conditions: Preemergence
[13] = system: wild oat; test: Test E wild oat; type: in vivo, Avena fatua; conditions: Preemergence, 0 to 100 scale where 0 is no effect and 100 is complete control
[14] = system: guineagrass; test: Test D guineagrass; type: in vivo, Panicum maximum; conditions: Preemergence, 0 to 100 scale
How it was run: as §2

[15] = system: Italian ryegrass; test: Test E Italian ryegrass; type: in vivo, Lolium multiflorum; conditions: Preemergence
[16] = Postemergence, Rate 62 g/ha, scale 0 to 10, 0 is no effect, 10 is complete control
[17] = Postemergence, Rate 250 g/ha, scale 0 to 10, 0 no effect, 10 complete control
[18] = Preemergence, Rate 125 g/ha, scale 0 to 10 (0 no effect, 10 complete control)
[19] = Preemergence, Rate 250 g/ha, scale of 0 to 10 where 0 is no effect and 10 is complete control
[20] = Preemergence, Rate 500 g/ha, scale 0 (no effect) to 10 (complete control)
[21] = Rate 125 g/ha, Postemergence, scale 0 to 10, 0 no effect, 10 complete control
[22] = Rate 500 g/ha, 0 to 100 scale where 0 is no effect and 100 is complete control
[23] = Rate 1000 g/ha, 0 to 100 scale where 0 is no effect and 100 is complete control
[24] = Rate 16 g/ha, 0 no injury, 100 complete control
[25] = Rate 32 g/ha, 0 no injury, 100 complete control
[26] = Rate 64 g/ha, 0 no injury, 100 complete control
[27] = Rate 125 g/ha, 0 no injury, 100 complete control
[28] = Preemergence, Rate 62 g/ha, scale 0 to 10, 0 is no effect, 10 is complete control
[29] = Rate 500 g/ha, Postemergence, 0 to 10 scale (0 no effect, 10 complete control)

Cc1cccc(C)c1-n1c(=O)on(C(=O)N(c2ccccc2)C(C)C)c1=O [Compound 46]
1: Cocklebur plant response rating [4, 17] | Cocklebur plant response rating [4, 21] | Plant response rating, Crabgrass [10, 28]
80: Plant response rating, Green foxtail [9, 23]
60: Plant response rating, Wheat (winter) ([6]; Rate 250 g/ha, 0 to 100 scale (0 no effect, 100 complete control)) | Plant response rating, Green foxtail ([9]; Rate 250 g/ha, 0 to 100 scale) | Plant response rating, Wild oat ([13]; Rate 500 g/ha)
2: Cocklebur plant response rating [4, 29]
70: Plant response rating, Blackgrass [2, 23] | Plant response rating, Wheat (winter) ([6]; Rate 1000 g/ha, 0 to 100 scale, 0 is no effect and 100 is complete control) | Plant response rating, Wheat (winter) ([6]; Rate 500 g/ha, 0 to 100 scale, 0 no effect, 100 complete control) | Plant response rating, Wheat (winter) [12, 22] | Plant response rating, Wild oat ([13]; Rate 1000 g/ha) | Plant response rating, I. Ryegrass [15, 23]
10: Plant response rating, Crabgrass [10, 19] | Crabgrass plant response rating [10, 20]
100: Plant response rating, Large crabgrass ([7]; Rate 250 g/ha) | Plant response rating, Large crabgrass ([7]; Rate 500 g/ha)
85: Plant response rating, Green foxtail [9, 22] | Plant response rating, Guineagrass ([14]; Rate 500 g/ha)
98: Plant response rating, Large crabgrass [7, 27]
55: Plant response rating, Blackgrass [2, 22]
65: Plant response rating, Guineagrass ([14]; Rate 250 g/ha) | Plant response rating, I. Ryegrass [15, 22]
30: Plant response rating, Barley (winter) ([11]; Rate 250 g/ha, 0 to 100 scale) | Plant response rating, Guineagrass [14, 26] | Plant response rating, Guineagrass [14, 27]
0: Wild oats plant response rating [1, 16] | Wild oats plant response rating [1, 17] | Plant response rating, Wild oats [1, 18] | Plant response rating, Wild oats [1, 19] | Wild oats plant response rating [1, 20] | Wild oats plant response rating [1, 21] | Plant response rating, Purple nutsedge [3, 24] | Plant response rating, Purple nutsedge [3, 25] | Purple nutsedge plant response rating [3, 26] | Purple nutsedge plant response rating [3, 27] | Plant response rating, Purple nutsedge ([3]; Rate 250 g/ha) | Plant response rating, Purple nutsedge ([3]; Rate 500 g/ha) | Cocklebur plant response rating [4, 16] | Plant response rating, Cocklebur [4, 28] | Plant response rating, Cocklebur [4, 18] | Plant response rating, Cocklebur [4, 19] | Cocklebur plant response rating [4, 20] | Wheat plant response rating [5, 16] | Wheat plant response rating [5, 17] | Plant response rating, Wheat [5, 28] | Plant response rating, Wheat [5, 18] | Plant response rating, Wheat [5, 19] | Wheat plant response rating [5, 20] | Wheat plant response rating [5, 21] | Plant response rating, Large crabgrass [7, 24] | Plant response rating, C. ragweed [8, 24] | Plant response rating, C. ragweed [8, 25] | Plant response rating, C. ragweed [8, 26] | Plant response rating, C. ragweed [8, 27] | Plant response rating, C. ragweed ([8]; Rate 250 g/ha) | Plant response rating, C. ragweed ([8]; Rate 500 g/ha) | Crabgrass plant response rating [10, 16] | Crabgrass plant response rating [10, 21] | Plant response rating, Guineagrass [14, 24] | Plant response rating, Guineagrass [14, 25]
3: Crabgrass plant response rating [10, 17] | Crabgrass plant response rating [10, 29]
4: Plant response rating, Crabgrass [10, 18]
50: Plant response rating, Barley (winter) [11, 23] | Plant response rating, Wheat (winter) [12, 23] | Plant response rating, I. Ryegrass ([15]; Rate 250 g/ha, 0 to 100 scale)
40: Plant response rating, Blackgrass ([2]; Rate 250 g/ha, 0 to 100 scale) | Plant response rating, Large crabgrass [7, 26] | Plant response rating, Barley (winter) [11, 22] | Plant response rating, Wheat (winter) ([12]; Rate 250 g/ha, 0 to 100 scale)
20: Plant response rating, Large crabgrass [7, 25]

Reference: patent US6737383B1, “Herbicidal oxadiazolidines” (priority 1999, dated 2004)
